The source of these data is patent US4069035A, “1-(2-Carboxyaryl)-3-aryl-1,2,4-triazoles and use as herbicides” (E. I. Du Pont de Nemours and Company, priority 1976, dated 1978).

Data set [1] deals with soybeans. Put plainly: postemergence plant growth test. Format: in vivo. To be noted: 2k/ha. An excerpt: (§1) The imidazole and triazole compounds of the invention are useful as plant growth modifiers when applied to plants. The compounds are applied to the immediate area where the plant is developing and growing, including preemergence and postemergence application.
For the next data set, the system named is barnyard grass. Put plainly: postemergence plant growth test. The data set is classed as in vivo. To be noted: 2k/ha.
Excerpt: as §1

Data set [2] concerns cocklebur. Put plainly: postemergence plant growth test. The data set is classed as in vivo. The following applies: 2k/ha.
Excerpt: as §1

The test system of data set [3] is rice. The data set is described as follows: postemergence plant growth test. Format: in vivo. The following applies: 2k/ha.
Excerpt: as §1

A further data set has as its system bush beans. The data set is described as follows: postemergence plant growth test. The data set is classed as in vivo. To be noted: 2k/ha.
Excerpt: as §1

Data set [4] has as its system corn. The data set is described as follows: postemergence plant growth test. The data set is classed as in vivo. The following applies: 2k/ha.
Excerpt: as §1

The test system of data set [5] is cassia. Put plainly: postemergence plant growth test. The following applies: 2k/ha. The data set is classed as in vivo.
Excerpt: as §1

A further data set has as its system cotton. The data set is described as follows: postemergence plant growth test. The data set is classed as in vivo. The following applies: 2k/ha.
Excerpt: as §1

For data set [6], the system named is sorghum. The data set is described as follows: postemergence plant growth test. The data set is classed as in vivo. To be noted: 2k/ha.
Excerpt: as §1

Data set [7] can be described thus: pKa by titration against aqueous NaOH (half neutralization point), buffer range. The following applies: for pKa: dimethylsulfoxide/water, 0.09995N NaOH, half neutralization point; for Buffer Range: range 1 acid:10 salt to 10 acid:1 salt. The data set is classed as physicochemical. Here is the method: The selected acids listed in Table IX (65-84 mg samples, weighed accurately) were respectively dissolved in a mixture of dimethylsulfoxide (25 ml) and water (10-25 ml) and titrated against 0.09995N aqueous sodium hydroxide using an automatic titrimeter (Metrohm Potentiograph Model E 336). According to the general theory of buffer solutions (A. I. Vogel, "A Textbook of Quantitative Inorganic Analysis, Theory and Practice," Longmans, Green, London (1948)), the following relationship exists in a dilute solution (0.05-0.2M) of a weak acid to which small additions of acid or base are made
pH = pKa + log [Salt]/[Acid]
The pH of the solution is mainly determined by the pKa of the acid, and in general the buffering capacity (ability to withstand pH change upon addition of acid or base) is maintained within the range 1 acid:10 salt to 10 acid:1 salt, a hundred-fold variation of concentration, or a change of two pH units. The buffer ranges of each of the acids is shown in the third column of Table IX. The acids are useful as buffers in weakly acidic solutions.

Data set [8] has as its system soybeans. Put plainly: preemergence plant growth test. The data set is classed as in vivo. The following applies: 2k/ha, soybeans.
Excerpt: as §1

The subject of another data set is crabgrass. Put plainly: preemergence plant growth test. Format: in vivo. The following applies: 2k/ha.
Excerpt: as §1

Data set [9] deals with wheat. The data set is described as follows: preemergence plant growth test. The data set is classed as in vivo. The following applies: 2k/ha.
Excerpt: as §1

The test system of data set [10] is rice. The data set is described as follows: preemergence plant growth test. Format: in vivo. To be noted: 2k/ha.
Excerpt: as §1

Data set [11] concerns corn. Put plainly: preemergence plant growth test. To be noted: 2k/ha. The data set is classed as in vivo.
Excerpt: as §1

Data set [12] has as its system wild oats. Put plainly: preemergence plant growth test. The following applies: 2k/ha. Format: in vivo.
Excerpt: as §1

The test system of data set [13] is sorghum. The data set is described as follows: preemergence plant growth test. The following applies: 2k/ha. The data set is classed as in vivo.
Excerpt: as §1

The subject of data set [14] is morning glory. Put plainly: postemergence plant growth test. The data set is classed as in vivo. To be noted: 2k/ha.
Excerpt: as §1

Data set [15] deals with nutsedge. The data set is described as follows: postemergence plant growth test. The data set is classed as in vivo. To be noted: 2k/ha.
Excerpt: as §1

Data set [16] relates to wheat. Put plainly: postemergence plant growth test. The data set is classed as in vivo. The following applies: 2k/ha.
Excerpt: as §1

Data set [17] deals with wild oats. Put plainly: postemergence plant growth test. To be noted: 2k/ha. The data set is classed as in vivo.
Excerpt: as §1

Data set [18] concerns nutsedge. Put plainly: preemergence plant growth test. Format: in vivo. The following applies: 2k/ha.
Excerpt: as §1

For data set [19], the system named is cocklebur. The data set is described as follows: preemergence plant growth test. The data set is classed as in vivo. To be noted: 2k/ha.
Excerpt: as §1

Data set [20] concerns morning glory. Put plainly: preemergence plant growth test. Format: in vivo. To be noted: 2k/ha.
Excerpt: as §1

Data set [21] has as its system cassia. The data set is described as follows: preemergence plant growth test. The data set is classed as in vivo. The following applies: 2k/ha.
Excerpt: as §1

In general, pKa refers to the pH at which an ionisable group is half protonated. Higher therefore signals a weaker acid or stronger base. For `COc1ccc(-c2cn(-c3ccccc3C(=O)O)cn2)cc1` [Example 3, 1-(2-carboxyphenyl)-4-(4-methoxyphenyl)imidazole], the axillary stimulation entry in the data set with soybeans [1], in the data set on barnyard grass and in the data set with cassia [5] was “axillary stimulation” in each case. In addition, the epinastic response result in the data set on soybeans [1], in the data set with cocklebur [2], with rice [3], with bush beans, in the data set with corn [4] and in the data set on cassia [5] was “epinastic response” each time. Moreover, the epinastic response result with cotton and in the data set with sorghum [6] was “epinastic response” throughout. The compound further had a pKa in [7] of 5.08. Besides, the “Buffer Range” value in data set [7] is recorded as 4.1 - 6.1 pH Units.
`O=C(O)c1ccccc1-n1cnc(-c2ccc(Cl)cc2)c1` [Example 2, 1-(2-carboxyphenyl)-4-(4-chlorophenyl)imidazole]: the epinastic response entry in the data set with soybeans [8] is recorded as “very strong epinastic responses”; in the data set with crabgrass, “very strong epinastic responses”; in the data set with wheat [9], “very strong response”; with rice [10], “very strong epinastic responses”; with corn [11], “very strong epinastic responses”; in the data set with wild oats [12] it was “very strong response”. Moreover, the epinastic response entry with sorghum [13] is recorded as “very strong response”; in the data set on bush beans, “epinastic response”; with corn [4], “epinastic response”; in the data set with morning glory [14], “epinastic response”; with cotton it was “epinastic response”; in the data set on sorghum [6], “epinastic response”. Besides, the axillary stimulation entry in the data set with soybeans [1] is on record as “strong axillary stimulation”.
For `O=C(O)c1ccccc1-n1cnc(-c2ccccc2)n1` [Example 5, 1-(2-carboxyphenyl)-3-phenyl-1,2,4-triazole], the epinastic response result with soybeans [1], in the data set with nutsedge [15], in the data set on rice [3] and in the data set with sorghum [6] was “epinastic response” in each case. The growth result with barnyard grass, in the data set with wheat [16] and in the data set with wild oats [17] was “retarded” in each case. In [7], this compound returned a pKa of 5.91. In data set [7], the “Buffer Range” value is given as 4.9 - 6.9 pH Units.
Turning to `Cc1ccc(-c2ncn(-c3ccccc3C(=O)O)n2)cc1` [Example 9, 1-(2-carboxyphenyl)-3-(4-methylphenyl)-1,2,4-triazole], the epinastic response entry with nutsedge [18], in the data set with cocklebur [19], with rice [10], with morning glory [20], with cassia [21] and in the data set with sorghum [13] was “epinastic response” in each case. Also, the epinastic response entry with nutsedge [15], with cocklebur [2], in the data set with rice [3], in the data set on morning glory [14], with cassia [5] and in the data set on sorghum [6] was “epinastic response” in each case. The growth result with bush beans is listed as “retarded”. The compound further yielded a pKa in data set [7] of 4.81. For the same compound, in [7], the “Buffer Range” value is recorded as 3.8 - 5.8 pH Units.
As for `Cc1ccc(-c2cn(-c3ccccc3C(=O)O)cn2)cc1` [Example 4, 1-(2-carboxyphenyl)-4-(4-methylphenyl)imidazole], the epinastic response result is given as “very strong epinastic responses” in the data set with soybeans [8]; “very strong epinastic responses” with crabgrass; “moderate to strong response” with wheat [9]; “very strong epinastic responses” in the data set with rice [10]; “very strong epinastic responses” with corn [11]; “moderate to strong response” in the data set with wild oats [12]. The epinastic response entry in the data set on sorghum [13] is reported as “moderate to strong response”; with bush beans, “epinastic response”; in the data set on corn [4], “epinastic response”; with morning glory [14], “epinastic response”; with cotton it was “epinastic response”; in the data set with sorghum [6] it was “epinastic response”. Moreover, the axillary stimulation entry with soybeans [1] was “strong axillary stimulation”. The pKa in data set [7] is recorded as 5.59. Further, the “Buffer Range” value in [7] was 4.6 - 6.6 pH Units.
As to `O=C(O)c1ccccc1-n1cnc(-c2ccc(Cl)cc2)n1` [Example 6, 1-(2-carboxyphenyl)-3-(4-chlorophenyl)-1,2,4-triazole], the epinastic response result with nutsedge [18], in the data set with wheat [9], with rice [10], in the data set on corn [11], with wild oats [12] and in the data set on cassia [21] was “epinastic responses” each time. The epinastic response result in the data set with sorghum [13] is given as “epinastic responses”. In addition, the pKa in [7] worked out at 5.48. Also, in data set [7], the “Buffer Range” value was 4.5 - 6.5 pH Units.
Take `COc1ccc(-c2ncn(-c3ccccc3C(=O)O)n2)cc1` [Example 8, 1-(2-carboxyphenyl)-3-(4-methoxyphenyl)-1,2,4-triazole]: the epinastic response result with nutsedge [18], in the data set with wheat [9], in the data set with rice [10], in the data set with corn [11], in the data set with wild oats [12] and in the data set with cassia [21] was “epinastic responses” in each case. The epinastic response result in the data set with sorghum [13] is on record as “epinastic responses”. In data set [7], this compound showed a pKa of 4.73. The “Buffer Range” value in data set [7] is given as 3.7 - 5.7 pH Units.
On to `O=C(O)c1ccccc1-n1cnc(-c2ccc(Cl)c(Cl)c2)n1` [Example 7, 1-(2-carboxyphenyl)-3-(3,4-dichlorophenyl)-,2,4-triazole], for which the epinastic response result with nutsedge [18], in the data set with wheat [9], in the data set on rice [10], in the data set with corn [11], in the data set on wild oats [12] and in the data set with cassia [21] was “epinastic responses” in each case. Moreover, in the data set on sorghum [13], the epinastic response entry is “epinastic responses”. The compound further yielded a pKa in data set [7] of 6.19. Also, in [7], the “Buffer Range” value is reported as 5.2 - 7.2 pH Units.
